According to the supplement of paper PMC11061612:

Key:
Test in all cases: Bliss excess, mean over the matrix (fraction); higher = more synergy
[1] = system: KM-H2 (Hodgkin's Lymphoma)
Method in brief: (§1)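 Bliss excess equals the observed combination effect minus the expected value EA + EB − EA·EB, where EA and EB are the effects of each agent alone. Combination Emax is the second-highest inhibition within the matrix. Inhibition was scaled from CellTiter-Glo 2.0 luminescence, with 0 set by vehicle wells and 1 by blank wells, after 72 hours of two-drug dosing of cells plated in 1536-well plates.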

RH-1 (Ewing's Sarcoma) = system: RH-1 (Ewing's Sarcoma)
Method in brief: as §1

[2] = system: SUIT-2 (Pancreatic Carcinoma)
Method in brief: as §1

[3] = system: SW756 (Cervical Carcinoma)
Method in brief: as §1

[4] = system: SW780 (Bladder Carcinoma)
Method in brief: as §1

[5] = system: TGBC24TKB (Biliary Tract Carcinoma)
Method in brief: as §1

## CS(=O)(=O)CCNCc1ccc(-c2ccc3ncnc(Nc4ccc(OCc5cccc(F)c5)c(Cl)c4)c3c2)o1 [Lapatinib] + NC1(c2ccc(-c3nc4ccn5c(=O)[nH]nc5c4cc3-c3ccccc3)cc2)CCC1 [MK-2206] (first compound max 10 µM, 7x7, partner max 10 µM)
[1]
  Bliss excess: 0.0116
RH-1 (Ewing's Sarcoma)
  Bliss excess: -0.0202
[2]
  Bliss excess: -0.0219
[3]
  Bliss excess: -0.0506
[4]
  Bliss excess: -0.0054
[5]
  Bliss excess: 0.0667
